Assay results taken from the supplement of paper PMC12406974.

Legend:
Assay in all cases: maximum observed lethal fraction; higher = more cell death
U2OS PTBP1-KO = test system: U2OS PTBP1-KO
U2OS BCL2L12-KO = test system: U2OS BCL2L12-KO
U2OS = test system: U2OS
U2OS BAX/BAK1 DKO = test system: U2OS BAX/BAK1 DKO
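Further: FLICK assay: SYTOX Green fluorescence of dead cells tracked over time after drugging in 96-well plates, with total cell counts taken from Triton X-100 lysed wells.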

CC(C)[C@]12O[C@H]1[C@@H]1O[C@]13[C@]1(O[C@H]1C[C@H]1C4=C(CC[C@@]13C)C(=O)OC4)[C@@H]2O [Triptolide]
maximum observed lethal fraction
Settings	0.001 µM	0.00316 µM	0.01 µM	0.0316 µM	0.1 µM	0.316 µM	1 µM
U2OS	0.0606	0.0621	0.161	0.621	0.521	0.616	0.638
U2OS BAX/BAK1 DKO	0.0639	0.067	0.0751	0.0882	0.0915	0.0939	0.0919
U2OS BCL2L12-KO	0.0575	0.0652	0.073	0.378	0.23	0.282	0.309
U2OS PTBP1-KO	0.0668	0.0699	0.085	0.24	0.206	0.223	0.286

C/C=C(/C)C(=O)O[C@H]1C(C)=C2[C@H]([C@@H]1OC(=O)CCCCCCC)[C@@](C)(OC(C)=O)C[C@H](OC(=O)CCC)[C@@]1(O)[C@H]2OC(=O)[C@@]1(C)O [Thapsigargin]
maximum observed lethal fraction
Settings	0.0316 µM	0.1 µM	0.316 µM	1 µM	3.16 µM	10 µM	31.6 µM
U2OS	0.405	0.476	0.473	0.602	0.585	0.763	0.862
U2OS BAX/BAK1 DKO	0.0914	0.192	0.171	0.266	0.163	0.811	0.884
U2OS BCL2L12-KO	0.631	0.675	0.688	0.71	0.721	0.779	0.892
U2OS PTBP1-KO	0.228	0.265	0.324	0.296	0.48	0.831	0.892

Nc1ccc(-c2ccc3ncc4ccc(=O)n(-c5cccc(C(F)(F)F)c5)c4c3c2)cn1 [Torin2]
maximum observed lethal fraction
Settings	0.0316 µM	0.1 µM	0.316 µM	1 µM	3.16 µM	10 µM	31.6 µM
U2OS	0.0812	0.0904	0.197	0.299	0.435	0.589	0.396
U2OS BAX/BAK1 DKO	0.0705	0.0756	0.0765	0.0833	0.0776	0.0881	0.272
U2OS BCL2L12-KO	0.104	0.181	0.249	0.362	0.467	0.629	0.443
U2OS PTBP1-KO	0.0906	0.107	0.196	0.276	0.363	0.436	0.421

CNCc1ccc(-c2[nH]c3cc(F)cc4c3c2CCNC4=O)cc1 [Rucaparib]
maximum observed lethal fraction
Settings	0.1 µM	0.316 µM	1 µM	3.16 µM	10 µM	31.6 µM	100 µM
U2OS	0.0508	0.0538	0.0545	0.057	0.0608	0.278	0.81
U2OS BAX/BAK1 DKO	0.0512	0.0548	0.0528	0.06	0.0652	0.0926	0.178
U2OS BCL2L12-KO	0.065	0.0637	0.0652	0.0687	0.0753	0.195	0.886
U2OS PTBP1-KO	0.0657	0.065	0.0647	0.0685	0.0766	0.18	0.683

Nc1cc(C(F)(F)F)c(-c2cc(N3CCOCC3)nc(N3CCOCC3)n2)cn1 [Buparlisib]
maximum observed lethal fraction
Settings	0.0316 µM	0.1 µM	0.316 µM	1 µM	3.16 µM	10 µM	31.6 µM
U2OS	0.0663	0.0713	0.0748	0.109	0.275	0.463	0.513
U2OS BAX/BAK1 DKO	0.0655	0.0661	0.0716	0.091	0.0979	0.11	0.116
U2OS BCL2L12-KO	0.0818	0.0866	0.0955	0.176	0.287	0.349	0.374
U2OS PTBP1-KO	0.0937	0.0916	0.0993	0.125	0.231	0.304	0.326

CN(C)C/C=C/C(=O)Nc1ccc(C(=O)Nc2cccc(Nc3ncc(Cl)c(-c4c[nH]c5ccccc45)n3)c2)cc1 [THZ1]
maximum observed lethal fraction
Settings	0.01 µM	0.0316 µM	0.1 µM	0.316 µM	1 µM	3.16 µM	10 µM
U2OS	0.0758	0.274	0.452	0.441	0.57	0.678	0.76
U2OS BAX/BAK1 DKO	0.0742	0.0981	0.0902	0.1	0.109	0.157	0.12
U2OS BCL2L12-KO	0.0888	0.274	0.475	0.467	0.582	0.742	0.761
U2OS PTBP1-KO	0.101	0.239	0.388	0.33	0.486	0.627	0.707

C[C@H]1CCC/C=C/[C@@H]2C[C@H](O)C[C@H]2[C@H](O)/C=C/C(=O)O1 [Brefeldin A]
maximum observed lethal fraction
Settings	0.0316 µM	0.1 µM	0.316 µM	1 µM	3.16 µM	10 µM	31.6 µM
U2OS	0.0868	0.38	0.634	0.701	0.762	0.775	0.818
U2OS BAX/BAK1 DKO	0.0711	0.075	0.0688	0.0708	0.0703	0.0786	0.0716
U2OS BCL2L12-KO	0.218	0.387	0.628	0.709	0.77	0.793	0.86
U2OS PTBP1-KO	0.168	0.257	0.333	0.321	0.29	0.411	0.389

O=C(NOC[C@H](O)CO)c1ccc(F)c(F)c1Nc1ccc(I)cc1F [Mirdametinib]
maximum observed lethal fraction
Settings	0.0316 µM	0.1 µM	0.316 µM	1 µM	3.16 µM	10 µM	31.6 µM
U2OS	0.0749	0.077	0.0842	0.244	0.353	0.435	0.554
U2OS BAX/BAK1 DKO	0.0734	0.0716	0.0737	0.078	0.0794	0.0785	0.0843
U2OS BCL2L12-KO	0.104	0.11	0.123	0.349	0.546	0.58	0.806
U2OS PTBP1-KO	0.0994	0.11	0.102	0.121	0.187	0.229	0.376

CN(C)C/C=C/C(=O)Nc1ccc(C(=O)N2CCC[C@@H](Nc3ncc(Cl)c(-c4c[nH]c5ccccc45)n3)C2)cc1 [THZ531]
maximum observed lethal fraction
Settings	0.01 µM	0.0316 µM	0.1 µM	0.316 µM	1 µM	3.16 µM	10 µM
U2OS	0.049	0.0521	0.0575	0.271	0.325	0.46	0.923
U2OS BAX/BAK1 DKO	0.061	0.0622	0.0635	0.0888	0.105	0.0957	0.188
U2OS BCL2L12-KO	0.0636	0.0649	0.0776	0.465	0.359	0.489	0.903
U2OS PTBP1-KO	0.0612	0.0612	0.0684	0.17	0.346	0.314	0.836

CC(C)C[C@H](NC(=O)[C@H](Cc1ccccc1)NC(=O)c1cnccn1)B(O)O [Bortezomib]
maximum observed lethal fraction
Settings	0.001 µM	0.00316 µM	0.01 µM	0.0316 µM	0.1 µM	0.316 µM	1 µM
U2OS	0.0526	0.193	0.757	0.865	0.9	0.904	0.917
U2OS BAX/BAK1 DKO	0.059	0.0694	0.096	0.27	0.378	0.387	0.443
U2OS BCL2L12-KO	0.0699	0.0922	0.345	0.8	0.791	0.889	0.904
U2OS PTBP1-KO	0.0725	0.108	0.418	0.637	0.731	0.791	0.82

CC(C)C[C@@H](C=O)NC(=O)[C@H](CC(C)C)NC(=O)[C@H](CC(C)C)NC(=O)OCc1ccccc1 [MG132]
maximum observed lethal fraction
Settings	0.01 µM	0.0316 µM	0.1 µM	0.316 µM	1 µM	3.16 µM	10 µM
U2OS	0.0559	0.0568	0.0844	0.698	0.86	0.893	0.926
U2OS BAX/BAK1 DKO	0.0534	0.0549	0.0687	0.0897	0.337	0.434	0.384
U2OS BCL2L12-KO	0.0715	0.07	0.0753	0.327	0.817	0.914	0.972
U2OS PTBP1-KO	0.0698	0.0706	0.0708	0.182	0.683	0.813	0.923

CN(C)CC[C@H](CSc1ccccc1)Nc1ccc(S(=O)(=O)NC(=O)c2ccc(N3CCN(Cc4ccccc4-c4ccc(Cl)cc4)CC3)cc2)cc1[N+](=O)[O-] [ABT-737]
maximum observed lethal fraction
Settings	0.0316 µM	0.1 µM	0.316 µM	1 µM	3.16 µM	10 µM	31.6 µM
U2OS	0.0571	0.0649	0.0818	0.115	0.189	0.462	0.788
U2OS BAX/BAK1 DKO	0.0579	0.0557	0.0559	0.0569	0.0568	0.0722	0.082
U2OS BCL2L12-KO	0.0733	0.076	0.0912	0.127	0.28	0.596	0.84
U2OS PTBP1-KO	0.0704	0.0736	0.0737	0.0836	0.13	0.38	0.617
